Source: ChEMBL document CHEMBL5625160, “Development of a next-generation endogenous OCT4 inducer and its anti-aging effect in vivo” (Eur J Med Chem, 2023)
pIC50: −log10 of the molar value. The source made the active and inactive calls. The rule behind the calls is not given here.

Legend:
[1] = Cytotoxicity against human HFF cells assessed as inhibition of cell viability measured after 48 hrs by MTT assay; format: toxicity, cell-based
[2] = target: POU domain, class 5, transcription factor 1 (Homo sapiens) (UniProt Q01860); assay: Induction of OCT4 (unknown origin) expressed in human NCCIT reporter cells assessed as increase in luminescence signal measured after 24 hrs by luciferase reporter assay; format: cell-based
Chain of POU domain, class 5, transcription factor 1 (Homo sapiens) (Q01860 whole entry, the tested form may be a part): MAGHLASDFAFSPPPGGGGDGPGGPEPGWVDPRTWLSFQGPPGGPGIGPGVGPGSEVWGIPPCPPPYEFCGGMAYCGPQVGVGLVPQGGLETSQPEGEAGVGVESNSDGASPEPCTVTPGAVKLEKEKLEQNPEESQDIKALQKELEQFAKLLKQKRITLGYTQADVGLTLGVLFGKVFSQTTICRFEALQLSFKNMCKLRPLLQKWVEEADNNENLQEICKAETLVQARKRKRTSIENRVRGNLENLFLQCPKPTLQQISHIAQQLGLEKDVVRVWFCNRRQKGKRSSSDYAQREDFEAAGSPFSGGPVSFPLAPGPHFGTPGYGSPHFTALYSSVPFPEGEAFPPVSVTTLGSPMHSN

[3] = target: POU domain, class 5, transcription factor 1 (Homo sapiens) (UniProt Q01860); assay: Induction of OCT4 (unknown origin) expressed in HEK cells assessed as increase in luminescence signal measured after 24 hrs by luciferase reporter assay; format: cell-based
[4] = target: Homeobox protein NANOG (Homo sapiens) (UniProt Q9H9S0); assay: Induction of NANOG (unknown origin) expressed in human NCCIT reporter cells assessed as increase in luminescence signal measured after 24 hrs by luciferase reporter assay; format: cell-based
Chain of Homeobox protein NANOG (Homo sapiens) (Q9H9S0 whole entry): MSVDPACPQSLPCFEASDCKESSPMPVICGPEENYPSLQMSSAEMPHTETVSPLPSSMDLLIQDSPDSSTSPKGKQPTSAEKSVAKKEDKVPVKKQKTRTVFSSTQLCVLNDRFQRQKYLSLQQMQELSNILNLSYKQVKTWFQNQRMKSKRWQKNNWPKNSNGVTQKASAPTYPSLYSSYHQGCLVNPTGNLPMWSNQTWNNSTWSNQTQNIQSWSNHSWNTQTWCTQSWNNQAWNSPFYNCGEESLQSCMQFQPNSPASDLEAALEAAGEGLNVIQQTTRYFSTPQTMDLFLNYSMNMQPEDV

NCCIT [5] = assay: Cytotoxicity against human NCCIT cells assessed as inhibition of cell viability measured after 48 hrs by MTT assay; format: functional, cell-based
Fibroblast [6] = assay: Reprogramming activity in human Fibroblast cells harbouring LTR7-GFP assessed as induction of iPSCs from somatic cells by measuring TRA-160 positive colonies at 5 uM measured after 7 days in presence of SOX2/KLF4/L-MYC/LIN28 (SKML); format: functional, cell-based; conditions: time 7.0 day
Drosophila [7] = assay: Anti-aging activity in Drosophila assessed as extension of life span; format: functional, organism-based
NCCIT [8] = assay: Upregulation of NANOG level in human NCCIT cells by fluorescence-activated cell sorter analysis; format: functional, cell-based
NCCIT [9] = assay: Upregulation of SOX2 level in human NCCIT cells by fluorescence-activated cell sorter analysis; format: functional, cell-based
[10] = target: Splicing factor 3B subunit 1 (Homo sapiens) (UniProt O75533); assay: Thermal stabilization of SF3B1 (unknown origin) assessed as increase in denaturation temperature by thermal shift assay (reference value: 58.5+/-2.05 degreeC)
Chain of Splicing factor 3B subunit 1 (Homo sapiens) (O75533 whole entry): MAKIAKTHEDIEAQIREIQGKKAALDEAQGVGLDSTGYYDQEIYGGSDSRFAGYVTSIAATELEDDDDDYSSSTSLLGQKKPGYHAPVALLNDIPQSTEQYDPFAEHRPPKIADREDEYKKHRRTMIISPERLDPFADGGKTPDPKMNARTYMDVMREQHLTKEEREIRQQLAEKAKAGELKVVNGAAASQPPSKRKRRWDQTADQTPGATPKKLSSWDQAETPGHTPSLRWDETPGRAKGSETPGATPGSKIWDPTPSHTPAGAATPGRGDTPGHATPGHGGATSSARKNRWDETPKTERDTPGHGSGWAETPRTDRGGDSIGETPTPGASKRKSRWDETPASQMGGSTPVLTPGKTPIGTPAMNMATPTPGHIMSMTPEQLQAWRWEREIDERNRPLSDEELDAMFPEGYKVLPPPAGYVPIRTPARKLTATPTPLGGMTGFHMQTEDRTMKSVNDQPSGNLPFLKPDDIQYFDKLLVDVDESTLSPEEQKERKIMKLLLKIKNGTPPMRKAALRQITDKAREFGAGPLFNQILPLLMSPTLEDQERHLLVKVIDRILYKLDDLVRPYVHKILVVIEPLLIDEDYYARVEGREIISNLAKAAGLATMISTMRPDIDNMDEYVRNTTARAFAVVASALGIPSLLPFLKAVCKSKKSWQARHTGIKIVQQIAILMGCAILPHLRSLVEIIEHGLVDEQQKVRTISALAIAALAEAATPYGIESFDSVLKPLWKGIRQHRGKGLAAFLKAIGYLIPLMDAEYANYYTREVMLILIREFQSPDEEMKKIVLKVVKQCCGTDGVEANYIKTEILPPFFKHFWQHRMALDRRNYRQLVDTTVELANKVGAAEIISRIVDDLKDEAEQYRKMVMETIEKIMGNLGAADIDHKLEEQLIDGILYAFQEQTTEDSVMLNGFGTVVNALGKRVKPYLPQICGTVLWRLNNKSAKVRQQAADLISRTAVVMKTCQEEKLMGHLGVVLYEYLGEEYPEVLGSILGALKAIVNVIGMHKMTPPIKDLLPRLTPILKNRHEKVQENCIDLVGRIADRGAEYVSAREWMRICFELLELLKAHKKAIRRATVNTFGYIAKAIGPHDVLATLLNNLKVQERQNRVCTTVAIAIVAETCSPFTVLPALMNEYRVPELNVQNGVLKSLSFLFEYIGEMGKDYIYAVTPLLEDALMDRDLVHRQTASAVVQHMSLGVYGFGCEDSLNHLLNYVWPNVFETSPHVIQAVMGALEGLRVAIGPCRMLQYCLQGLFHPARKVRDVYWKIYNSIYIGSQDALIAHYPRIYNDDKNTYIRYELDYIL

NCCIT [11] = assay: Upregulation of E-cadherin expression in human NCCIT cells at 5 to 10 uM measured after 2 days by qRT-PCR analysis; format: functional, cell-based; conditions: dose 5-10 µM, time 2.0 day
Fibroblast [12] = assay: Upregulation of OCT4 level in human Fibroblast cells measured after 5 days by immunoblot analysis; format: functional, cell-based; conditions: dose 5-50 µM, time 5.0 day
Drosophila [13] = assay: Anti-aging activity in Drosophila assessed as increase in life span at 20 uM measured upto 60 days relative to control; format: functional; conditions: 1440 h, time <= 60 day
NCCIT [14] = assay: Upregulation of SOX2 expression in human NCCIT cells at 5 to 10 uM measured after 2 days by qRT-PCR analysis; format: functional, cell-based; conditions: dose 5-10 µM, time 2.0 day
Caenorhabditis elegans [15] = assay: Anti-aging activity in Caenorhabditis elegans […] assessed as induction of daf-16 nuclear translocation measured after 24 hrs; format: functional, organism-based
Caenorhabditis elegans [16] = assay: Anti-aging activity in wild type Caenorhabditis elegans N2 assessed as increase in life extension at 0.5 uM measured upto 40 days; format: functional, organism-based; conditions: time <= 40.0 day
NCCIT [17] = assay: Upregulation of REX1 expression in human NCCIT cells at 5 to 10 uM measured after 2 days by qRT-PCR analysis; format: functional, cell-based; conditions: dose 5-10 µM, time 2.0 day
Fibroblast [18] = assay: Reduction in OCT4 expression in SF3B1 siRNA human Fibroblast cells harbouring LTR7-EGFP; format: functional, cell-based
Drosophila [19] = assay: Anti-aging activity in Drosophila assessed as increase in life span at early adulthood at 20 uM measured upto 60 days relative to control; format: functional; conditions: 1440 h, time <= 60 day
NCCIT [20] = assay: Upregulation of OCT4 level in human NCCIT cells measured after 5 days by immunoblot analysis; format: functional, cell-based; conditions: dose 1-50 µM, time 5.0 day
NCCIT [21] = assay: Upregulation of STAT3 expression in human NCCIT cells at 5 to 10 uM measured after 2 days by qRT-PCR analysis; format: functional, cell-based; conditions: dose 5-10 µM, time 2.0 day
NCCIT [22] = assay: Upregulation of OCT4 level in human NCCIT cells by fluorescence-activated cell sorter analysis; format: functional, cell-based
[23] = Upregulation of OCT4 expression in human NCCIT cells assessed as fold increase at 5 to 10 uM measured after 2 days by qRT-PCR analysis; format: functional; conditions: dose 5-10 µM; time 2 day
HFF [24] = assay: Effect on SOX2 expression in human HFF cells; format: functional, cell-based
[25] = target: POU domain, class 5, transcription factor 1 (Homo sapiens) (UniProt Q01860); assay: Induction of OCT4 in human HFF cells measured after 8 hrs; format: cell-based; conditions: filed as activator
[26] = Upregulation of NANOG expression in human NCCIT cells assessed as fold increase at 5 to 10 uM measured after 2 days by qRT-PCR analysis; format: functional; conditions: dose 5-10 µM; time 2 day
HFF [27] = assay: Effect on OCT expression in human HFF cells; format: functional, cell-based
NCCIT [28] = assay: Upregulation of E-cadherin level in human NCCIT cells by fluorescence-activated cell sorter analysis; format: functional, cell-based
Drosophila [29] = assay: Anti-aging activity in Drosophila assessed as increase in life span at late adulthood at 20 uM measured upto 60 days; format: functional, organism-based; conditions: time <= 60.0 day
HFF [30] = assay: Effect on NANOG expression in human HFF cells; format: functional, cell-based
Caenorhabditis elegans [31] = assay: Anti-aging activity in wild type Caenorhabditis elegans N2 assessed as increase in survival rate measured after 48 hrs under oxidative stress; format: functional, organism-based
Drosophila [32] = assay: Anti-aging activity in Drosophila; format: functional, organism-based
Albumin = Albumin (Homo sapiens, UniProt P02768); assay: Protein binding in serum albumin (unknown origin); format: ADME; conditions: read-out: PB (converted)
Chain of Albumin (P02768 whole entry): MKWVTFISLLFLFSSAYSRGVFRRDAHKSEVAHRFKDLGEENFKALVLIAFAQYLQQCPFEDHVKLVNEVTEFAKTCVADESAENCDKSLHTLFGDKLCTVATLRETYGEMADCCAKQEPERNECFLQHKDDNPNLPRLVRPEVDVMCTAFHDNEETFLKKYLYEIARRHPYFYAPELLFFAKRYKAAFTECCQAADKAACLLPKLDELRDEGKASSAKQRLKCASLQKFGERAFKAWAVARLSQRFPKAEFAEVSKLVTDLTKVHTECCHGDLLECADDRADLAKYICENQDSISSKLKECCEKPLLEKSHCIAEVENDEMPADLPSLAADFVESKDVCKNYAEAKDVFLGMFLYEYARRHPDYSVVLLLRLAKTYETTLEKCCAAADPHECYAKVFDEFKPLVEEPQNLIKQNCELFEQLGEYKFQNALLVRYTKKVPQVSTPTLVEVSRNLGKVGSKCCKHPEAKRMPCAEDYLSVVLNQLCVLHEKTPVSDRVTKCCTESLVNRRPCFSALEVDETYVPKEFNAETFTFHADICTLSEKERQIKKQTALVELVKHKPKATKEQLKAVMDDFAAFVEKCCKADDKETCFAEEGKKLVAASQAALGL

[33] = Membrane permeability of the compound; format: ADME

## CCOC(=O)c1csc(Nc2cc(OC)ccc2OC)n1
[1]
  IC50 at 48 h: > 20 µM
[2]
  Activity: inactive
[3]
  Activity: inactive
[4]
  Activity: inactive
NCCIT [5]
  pIC50: < 4.70

## Cc1ccccc1Nc1nc(C(C)(C)C)cs1
[1]
  IC50 at 48 h: > 20 µM
NCCIT [5]
  pIC50: 5.03

## CCOC(=O)c1csc(Nc2ccc(Cl)cc2OC)n1
[1]
  IC50 at 48 h: > 20 µM
[2]
  Activity: inactive
[3]
  Activity: inactive
[4]
  Activity: inactive
NCCIT [5]
  pIC50: < 4.70

## CCOC(=O)c1csc(Nc2ccc([N+](=O)[O-])cc2)n1
[1]
  IC50 at 48 h: > 20 µM
[2]
  Activity: inactive
[3]; filed as activator
  Activity: Active
[4]
  Activity: inactive
NCCIT [5]
  pIC50: < 4.70

## CC(C)(C)c1csc(Nc2ccc(Cl)cc2)n1
[1]
  IC50 at 48 h: > 20 µM
Fibroblast [6]
  Activity: inactive
NCCIT [5]
  pIC50: 4.70

## C=C[C@@]1(C)CC(=O)[C@]2(O)[C@@]3(C)[C@@H](O)CCC(C)(C)[C@@H]3[C@H](O)[C@H](OC(C)=O)[C@@]2(C)O1
Drosophila [7]
  Activity: inactive

## CCOC(=O)c1csc(Nc2ccc(OC)cc2)n1
[1]
  IC50 at 48 h: > 20 µM
[2]
  Activity: inactive
[3]
  Activity: inactive
[4]
  Activity: inactive
NCCIT [5]
  pIC50: < 4.70

## CCOC(=O)c1csc(Nc2cc(F)ccc2F)n1
[1]
  IC50 at 48 h: > 20 µM
[2]
  Activity: inactive
[3]; filed as activator
  Activity: Active
[4]
  Activity: inactive
NCCIT [5]
  pIC50: < 4.70

## CCOC(=O)c1csc(Nc2ccc(C#N)cc2)n1
[1]
  IC50 at 48 h: > 20 µM
[2]
  Activity: inactive
[3]
  Activity: inactive
[4]
  Activity: inactive
NCCIT [5]
  pIC50: < 4.70

## CCOC(=O)c1csc(Nc2cc(C(F)(F)F)cc(C(F)(F)F)c2)n1
[1]
  IC50 at 48 h: > 20 µM
[2]
  Activity: inactive
[3]
  Activity: inactive
[4]
  Activity: inactive
NCCIT [5]
  pIC50: < 4.70

## CCOC(=O)c1csc(Nc2ccc(C)cc2)n1
[1]
  IC50 at 48 h: > 20 µM
[2]
  Activity: inactive
[3]
  Activity: inactive
[4]
  Activity: inactive
NCCIT [5]
  pIC50: < 4.70

## CCOC(=O)c1csc(Nc2ccc(OC)cc2OC)n1
[1]
  IC50 at 48 h: > 20 µM
[2]
  Activity: inactive
[3]
  Activity: inactive
[4]
  Activity: inactive
NCCIT [5]
  pIC50: < 4.70

## CCOC(=O)c1csc(Nc2ccc(C)cc2Br)n1
[1]
  IC50 at 48 h: > 20 µM
Fibroblast [6]
  Activity: Active
[2]
  Activity: inactive
[3]; filed as activator
  Activity: Active
[4]
  Activity: inactive
NCCIT [5]
  pIC50: < 4.70

## Clc1ccc(Nc2nc(-c3ccc4ccccc4c3)cs2)cc1
[1]
  IC50 at 48 h: > 20 µM
NCCIT [5]
  pIC50: < 4.70

## Cc1cccc(Nc2nc(C(C)(C)C)cs2)c1C
NCCIT [8]
  Activity: Active
NCCIT [9]
  Activity: Active
[10]
  T: 64.9 °C
NCCIT [11]
  Activity: Active
Fibroblast [12]
  Activity: Dose-Dependent Effect
Drosophila [13]
  ILS at 20 µM: 5%
NCCIT [14]
  Activity: Active
Caenorhabditis elegans [15]
  Activity: Active
Caenorhabditis elegans [16]
  Activity: Active
NCCIT [17]
  Activity: Active
[1]
  IC50 at 48 h: > 20 µM
Fibroblast [6]
  Activity: Active
[2]; filed as activator
  Activity: Active
Fibroblast [18]
  Activity: Active
Drosophila [19]
  ILS at 20 µM: 10%
[3]; filed as activator
  Activity: Active
NCCIT [20]
  Activity: Dose-Dependent Effect
NCCIT [21]
  Activity: Active
NCCIT [22]
  Activity: Active
[23]
  fold change (FC): 3
[4]; filed as activator
  Activity: Active
NCCIT [5]
  pIC50: 4.96
HFF [24]
  Activity: Active
[25]
  Activity: Active
[26]
  fold change (FC): 30
HFF [27]
  Activity: Active
NCCIT [28]
  Activity: Active
Drosophila [29]
  ILS: inactive
HFF [30]
  Activity: Active
Caenorhabditis elegans [31]
  Activity: Active

## Cc1ccc(-c2cn3cc(C)ccc3n2)cc1
Fibroblast [6]
  Activity: Active

## CCOC(=O)c1csc(Nc2ccc(C(=O)O)cc2)n1
[1]
  IC50 at 48 h: > 20 µM
Fibroblast [6]
  Activity: Active
[2]; filed as activator
  Activity: Active
[3]; filed as activator
  Activity: Active
[4]; filed as activator
  Activity: Active
NCCIT [5]
  pIC50: < 4.70

## CCOC(=O)c1csc(Nc2ccc(Br)cc2C)n1
[1]
  IC50 at 48 h: > 20 µM
[2]
  Activity: inactive
[3]; filed as activator
  Activity: Active
[4]
  Activity: inactive
NCCIT [5]
  pIC50: < 4.70

## Cc1ccc(Nc2nc(C(C)(C)C)cs2)cc1
[1]
  IC50 at 48 h: > 20 µM
NCCIT [5]
  pIC50: < 4.70

## CC(C)(C)c1csc(Nc2ccccc2)n1
[1]
  IC50 at 48 h: > 20 µM
NCCIT [5]
  pIC50: < 4.70

## Clc1ccc(Nc2nc(-c3ccccc3)cs2)cc1
[1]
  IC50 at 48 h: > 20 µM
NCCIT [5]
  pIC50: < 4.70

## Cc1ccc(Nc2nc(C(C)(C)C)cs2)c(C)c1
[1]
  IC50 at 48 h: > 20 µM
NCCIT [5]
  pIC50: < 4.70

## CCOC(=O)c1csc(Nc2ccc(O)cc2)n1
[1]
  IC50 at 48 h: > 20 µM
[2]
  Activity: inactive
[3]
  Activity: inactive
[4]
  Activity: inactive
NCCIT [5]
  pIC50: < 4.70

## Cc1cccc(Nc2nc(C(C)(C)C)cs2)c1
[1]
  IC50 at 48 h: 11.6 µM
NCCIT [5]
  pIC50: 5.22

## CCOC(=O)c1csc(Nc2ccc(Cl)cc2)n1
[10]
  T: 64.7 °C
Fibroblast [6]
  Activity: Active
[2]
  Activity: inactive
[3]
  Activity: inactive
Drosophila [32]
  Activity: inactive
[4]
  Activity: inactive
Albumin
  fraction unbound: 0.1
[33]
  permeability: 70%

## CCOC(=O)c1csc(Nc2ccc(F)cc2F)n1
[1]
  IC50 at 48 h: > 20 µM
[2]
  Activity: inactive
[3]; filed as activator
  Activity: Active
[4]
  Activity: inactive
NCCIT [5]
  pIC50: < 4.70
